Test results reported in the supplement of paper PMC10307832.

How the values were obtained:
Assay in all cases: relative viability (nuclei count vs DMSO), 5 days (fraction); higher = more cells survive
Masitinib + Alpelisib = compound: Cc1ccc(NC(=O)c2ccc(CN3CCN(C)CC3)cc2)cc1Nc1nc(-c2cccnc2)cs1 [Masitinib] + Cc1nc(NC(=O)N2CCC[C@H]2C(N)=O)sc1-c1ccnc(C(C)(C)C(F)(F)F)c1 [Alpelisib] (partner 2 µM)
Method in brief: (§1)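 For relative viability, nuclei counts in treated wells were divided by those in vehicle wells. Lung cancer cell lines had been pin-tool dosed in 1536-well plates the day after seeding and cultured for 5 days, then fixed and stained in one step (final 0.05% Triton X-100, 1% formaldehyde, 1 ug/ml Hoechst) and imaged at 4×. Doses were one drug alone or a fixed anchor-drug dose plus five library-drug doses (not always all listed) in √10 steps, and values are duplicate-plate medians.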

Masitinib + Lapatinib = compound: Cc1ccc(NC(=O)c2ccc(CN3CCN(C)CC3)cc2)cc1Nc1nc(-c2cccnc2)cs1 [Masitinib] + CS(=O)(=O)CCNCc1ccc(-c2ccc3ncnc(Nc4ccc(OCc5cccc(F)c5)c(Cl)c4)c3c2)o1 [Lapatinib] (partner 2 µM)
Method in brief: as §1

[1] = compound: CC1=CC(=CC=C1)NC2=NC(=CS2)C3=CC=NC=C3 + O=C(CCCCCCC(=O)Nc1ccccc1)NO [Vorinostat] (partner 1 µM)
Method in brief: as §1

[2] = compound: CC1=CC(=CC=C1)NC2=NC(=CS2)C3=CC=NC=C3 + Nc1ncn([C@H]2C[C@H](O)[C@@H](CO)O2)c(=O)n1 [Decitabine] (partner 2 µM)
Method in brief: as §1

| Cell Line | relative viability (Masitinib + Alpelisib; first compound 0.01 µM) | relative viability (Masitinib + Alpelisib; first compound 0.03162 µM) | relative viability (Masitinib + Alpelisib; first compound 0.1 µM) | relative viability (Masitinib + Alpelisib; first compound 0.3162 µM) | relative viability (Masitinib + Alpelisib; first compound 1 µM) | relative viability (Masitinib + Lapatinib; first compound 0.01 µM) | relative viability (Masitinib + Lapatinib; first compound 0.03162 µM) | relative viability (Masitinib + Lapatinib; first compound 0.1 µM) | relative viability (Masitinib + Lapatinib; first compound 0.3162 µM) | relative viability (Masitinib + Lapatinib; first compound 1 µM) | relative viability ([1]; first compound 0.08 µM) | relative viability ([1]; first compound 0.253 µM) | relative viability ([1]; first compound 0.8 µM) | relative viability ([1]; first compound 2.53 µM) | relative viability ([1]; first compound 8 µM) | relative viability ([2]; first compound 0.08 µM) | relative viability ([2]; first compound 0.253 µM) | relative viability ([2]; first compound 2.53 µM) | relative viability ([2]; first compound 8 µM) | relative viability ([2]; first compound 0.8 µM) |
| --- | --- | --- | --- | --- | --- | --- | --- | --- | --- | --- | --- | --- | --- | --- | --- | --- | --- | --- | --- | --- |
| EBC-1 | 0.835 | 0.713 | 1.01 | 0.715 | 0.822 | 0.191 | 0.235 | 0.197 | 0.196 | 0.21 |  |  |  |  |  |  |  |  |  |  |
| EKVX |  | 0.779 | 0.786 | 0.706 | 0.944 |  | 0.165 | 0.198 | 0.158 | 0.196 | 0.31 | 0.585 | 0.507 | 0.488 | 0.502 | 0.289 | 0.397 | 0.356 | 0.316 |  |
| EMC-BAC-2 | 0.701 | 0.714 | 0.841 | 0.767 | 0.783 | 0.793 | 0.911 | 0.837 | 0.9 | 0.966 | 0.367 |  | 0.579 | 0.343 | 0.425 | 0.916 |  | 0.918 | 0.884 | 0.91 |
| EPLC-272H | 0.999 | 0.902 | 1.12 | 1.07 | 0.898 | 0.948 | 0.898 | 0.951 | 0.914 | 0.827 | 0.483 | 0.353 | 0.465 | 0.292 | 0.639 | 0.339 | 0.37 |  | 0.352 | 0.348 |
| H3255 |  | 0.84 | 0.766 | 0.49 | 0.675 |  | 0.268 | 0.243 | 0.213 | 0.248 | 0.758 | 0.723 | 0.65 | 0.666 | 0.717 | 0.576 | 0.506 | 0.601 | 0.553 | 0.581 |
| HARA | 0.798 | 0.621 | 0.809 | 0.727 | 0.822 | 0.582 | 0.78 | 0.855 | 0.675 | 0.719 | 0.492 | 0.523 | 0.501 | 0.391 | 0.302 | 0.508 | 0.438 | 0.48 | 0.664 | 0.539 |
| HCC-15 | 0.8 | 0.873 | 0.976 | 0.85 | 0.916 | 0.561 | 0.919 | 0.677 | 0.917 | 0.852 | 0.678 | 0.645 | 0.773 | 0.67 | 0.636 | 0.621 | 0.662 | 0.582 | 0.625 | 0.58 |
| HCC-44 | 0.748 | 0.752 | 0.88 | 0.69 | 0.834 | 0.911 | 0.98 | 1.05 | 0.856 | 0.951 | 1.02 | 0.926 | 0.826 | 0.797 | 0.825 | 0.88 | 0.788 | 0.767 | 0.826 | 0.834 |
| HCC-78 | 0.342 | 0.188 | 0.438 | 0.306 | 0.332 | 0.871 | 0.62 | 0.743 | 0.334 | 0.625 | 0.513 | 0.468 | 0.477 | 0.41 | 0.481 | 0.727 | 0.613 | 0.613 | 0.661 | 0.614 |
